Consider 4 molecules from paper PMC6470840 (International Journal of Molecular Sciences, 2019).

For one series, the system named is T2DM rats. Further details: method as in PMID 24946264. Particulars: injected (intraperitoneal injection); cited from earlier work. An excerpt:
DhHP-6 (Deuterohemin-βAla-His-Thr-Val-Glu-Lys) was designed based on the microperoxidase-11 (MP-11), generated through […]. […] When ...

The test system of series [1] is T2DM mice. Put plainly: T2DM mouse model: pancreas islet histology (H&E). Format: in vivo, C57BL/6J mice. The conditions noted are these: DhHP-6 60 mg/kg or metformin 250 mg/kg oral, four weeks. As to the method: (§1) At the end of the experiment, the liver and pancreas islets were immediately removed after the mice were sacrificed. The left lobe of the liver was stored at −80 °C and the right lobe of the liver was fixed in 4% paraformaldehyde (Solarbio & Technology Co., Ltd., Beijing, China). After dehydration in a gradient of ethanol concentrations, tissues were paraffin embedded and cut into 5 μm thick sections. Slices were stained with hematoxylin and eosin (H&E) dyes, and sections were mounted in neutral deparaffinized xylene medium for microscopic examination using an Olympus BX53 fluorescence microscope (Olympus, Tokyo, Japan).

Series [2] concerns T2DM mice. Put plainly: T2DM mouse model: liver histology (H&E). The format is in vivo, C57BL/6J mice. Particulars: DhHP-6 60 mg/kg or metformin 250 mg/kg oral, four weeks. As to the method:
as §1

How the values of series [3] were obtained:
As a peroxidase mimetic, the enzymatic potency of the digestion products of DhHP-6 were assessed using the H2O2–Vitamin C (Vc) double-substrate method. Digestion products of DhHP-6 were diluted to 10 μM. Samples containing no enzyme were used as a control. The reaction system consisted of phosphate buffer solution (PBS) (50 mM, pH 7.4), H2O2 (1 mM), Vc ([…]), and 10 μM DhHP-6. All samples were assayed at 25 °C. The decrease in the absorbance at 290 nm was measured for 30 s by UV–Vis spectrophotometer (Shimadzu, Kyoto, Japan), and measurements were performed prior to the addition of the digestion products and set as 100% relative enzymatic activity.

A short description of series [4]: simulated gastric fluid (SGF), pH 1.2, prepared in accordance with the US Pharmacopeia. The conditions noted are these: 37 °C, up to 120 min.
Series [5] in a line: simulated intestinal fluid (SIF), pH 6.8 ± 0.1, prepared in accordance with the US Pharmacopeia. Particulars: 37 °C, up to 120 min.
A short description of series [6]: blood samples of rats after intravenous injection or intragastric administration. Particulars: male Wistar rats, up to 12 h.
The next series is described as follows: human plasma. The conditions noted are these: 37 °C, up to seven days.

“Also recorded” adds a separate entry of the source.

As to “deuterohemin-Ala-His-Lys [DhHP-3 (deuterohemin-Ala-His-Lys)]”, the “symptoms of T2DM rats” value in the series with T2DM rats is on record as “improves the symptoms of T2DM rats”.

`CN(C)C(=N)N=C(N)N` [metformin, reference compound]: the “pancreas islet histology, high dose / metformin” value in the series with T2DM mice [1] is “the islets and vacuolar degeneration improved”. Also, the “liver histology, high dose / metformin” value with T2DM mice [2] was “lower levels of steatosis were evident and the liver cells became more regular than T2DM mice”.

In the case of Deuterohemin-βAla-His-Thr [DhHP-3], in series [3], the “relative enzyme activity of the plasma degradation product” value is “retained the relative enzyme activity of DhHP-6”.

For the molecule Deuterohemin-βAla-His-Thr-Val-Glu-Lys, the fragment found result is on record as “DhHP-5 (Deuterohemin-βAla-His-Thr-Val-Glu), major” in series [4]; “DhHP-5; also recorded: DhHP-2 (Deuterohemin-βAla-His)” in series [5]; “DhHP-3, major” in series [6]; “DhHP-3 (Deuterohemin-βAla-His-Thr), major” in “human plasma”.
